Blank lines part the entries; values can stand above or below the molecule they belong to.
Key:
Coagulation factor XI [1] = target: T1, Coagulation factor XI (Homo sapiens, UniProt P03951); experiment: Inhibition of FXIa (unknown origin)
Cathepsin G = target: T2, Cathepsin G (Homo sapiens, UniProt P08311); experiment: Inhibition of human cathepsin G
T2 sequence (P08311 whole entry): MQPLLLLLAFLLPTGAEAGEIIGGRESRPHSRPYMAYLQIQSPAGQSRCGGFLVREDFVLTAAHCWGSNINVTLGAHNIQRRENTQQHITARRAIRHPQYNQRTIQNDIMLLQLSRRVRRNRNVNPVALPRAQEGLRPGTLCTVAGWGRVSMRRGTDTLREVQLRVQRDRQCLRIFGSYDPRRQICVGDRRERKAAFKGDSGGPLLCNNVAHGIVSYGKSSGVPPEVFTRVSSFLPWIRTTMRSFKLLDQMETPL

Neutrophil elastase = target: T3, Neutrophil elastase (Homo sapiens, UniProt P08246); experiment: Inhibition of human Neutrophil elastase
T3 sequence (P08246 whole entry): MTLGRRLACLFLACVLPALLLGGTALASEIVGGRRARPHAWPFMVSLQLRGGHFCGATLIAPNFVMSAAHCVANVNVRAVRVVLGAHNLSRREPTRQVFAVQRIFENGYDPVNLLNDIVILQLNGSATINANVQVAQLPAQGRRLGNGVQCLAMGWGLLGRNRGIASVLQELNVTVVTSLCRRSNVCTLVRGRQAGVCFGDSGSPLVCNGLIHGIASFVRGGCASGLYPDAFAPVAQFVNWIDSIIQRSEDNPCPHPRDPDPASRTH

[2] = Half life in rat; type: ADME; conditions: in vivo
Plasma kallikrein = Plasma kallikrein (Homo sapiens, UniProt P03952)
Plasma kallikrein, sequence (P03952 20-390 limits assumed): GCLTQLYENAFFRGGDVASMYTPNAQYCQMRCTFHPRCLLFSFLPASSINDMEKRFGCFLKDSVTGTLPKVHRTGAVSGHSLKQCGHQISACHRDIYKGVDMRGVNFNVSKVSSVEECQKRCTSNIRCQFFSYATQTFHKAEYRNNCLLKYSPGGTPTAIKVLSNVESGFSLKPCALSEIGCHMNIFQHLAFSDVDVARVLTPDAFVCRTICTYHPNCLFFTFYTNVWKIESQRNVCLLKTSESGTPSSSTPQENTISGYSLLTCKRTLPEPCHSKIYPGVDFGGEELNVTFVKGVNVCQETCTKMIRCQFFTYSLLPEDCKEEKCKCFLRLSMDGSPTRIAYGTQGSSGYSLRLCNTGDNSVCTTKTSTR
Plasma kallikrein, sequence (P03952 391-638 limits assumed): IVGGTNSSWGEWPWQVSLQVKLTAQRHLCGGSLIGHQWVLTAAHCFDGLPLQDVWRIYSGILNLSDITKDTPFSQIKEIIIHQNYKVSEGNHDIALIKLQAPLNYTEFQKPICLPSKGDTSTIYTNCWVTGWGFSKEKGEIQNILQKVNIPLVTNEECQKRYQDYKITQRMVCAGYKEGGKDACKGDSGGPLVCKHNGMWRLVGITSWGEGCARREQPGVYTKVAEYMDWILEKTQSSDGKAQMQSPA

[3] = Solubility of the compound; type: physicochemical
[4] = Clearance in rat; type: ADME; conditions: in vivo
[5] = Oral bioavailability in mouse; type: ADME, organism-based; conditions: in vivo
[6] = Clearance in mouse; type: ADME, organism-based; conditions: in vivo
[7] = Half life in mouse; type: ADME, organism-based; conditions: in vivo
Complement factor D = Complement factor D (Homo sapiens, UniProt P00746); experiment: Inhibition of FD (unknown origin)
Complement factor D, sequence (P00746 whole entry): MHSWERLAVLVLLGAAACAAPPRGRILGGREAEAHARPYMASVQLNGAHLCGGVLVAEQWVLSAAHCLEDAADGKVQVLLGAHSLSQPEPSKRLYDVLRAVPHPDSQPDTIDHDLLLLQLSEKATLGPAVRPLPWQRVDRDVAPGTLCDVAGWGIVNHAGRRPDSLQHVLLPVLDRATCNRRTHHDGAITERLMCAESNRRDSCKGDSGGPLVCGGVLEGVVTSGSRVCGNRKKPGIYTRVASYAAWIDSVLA

Plasma [8] = experiment: Anticoagulant activity in human plasma assessed as concentration required to double the prothrombin time; type: functional
[9] = Selectivity index, ratio IC50 for FXIa (unknown origin) to IC50 for FD (unknown origin)
Plasma [10] = experiment: Anticoagulant activity in human plasma assessed as concentration required to double the activated partial thromboplastin time; type: functional
[11] = Oral bioavailability in rat at 1.5 mg/kg; type: ADME, organism-based; conditions: in vivo
Plasma [12] = experiment: Anticoagulant activity in human plasma assessed as concentration required to 1.5 times activation of partial thromboplastin time; type: functional
[13] = Clearance in rat at 1 mg/kg, iv; type: ADME, organism-based; conditions: in vivo
[14] = Plasma protein binding in human at 10 pM incubated for 4 hrs by HPLC-MS/MS analysis; type: ADME, cell-free; conditions: read-out: PPB
[15] = Oral bioavailability in dog; type: ADME, organism-based, Canis lupus familiaris; conditions: in vivo
[16] = Metabolic stability in dog liver microsomes assessed as half life; type: ADME, Canis lupus familiaris, Microsome
[17] = Metabolic stability in mouse liver microsomes assessed as half life; type: ADME, Microsome
[18] = Oral bioavailability in Sprague-Dawley rat incubated upto 24 hrs by LC-MS/MS analysis; type: ADME, organism-based; conditions: in vivo
[19] = Half life in Sprague-Dawley rat at 1 mg/kg, iv; type: ADME, organism-based; conditions: in vivo
[20] = Clearance in Sprague-Dawley rat at 5 to 10 mg/kg, po by LC-MS/MS analysis; type: ADME, organism-based; conditions: in vivo, dose 5-10 mg/kg
[21] = Oral bioavailability in Sprague-Dawley rat at 5 to 10 mg/kg by LC-MS/MS analysis; type: ADME, organism-based; conditions: in vivo, dose 5-10 mg/kg
[22] = Half life in Sprague-Dawley rat at 5 to 10 mg/kg, po by LC-MS/MS analysis; type: ADME, organism-based; conditions: in vivo, dose 5-10 mg/kg
Coagulation factor XI [23] = target: T1, Coagulation factor XI; experiment: Inhibition of human FXIa by absorbance based analysis
[24] = Half life in IG dosed Beagle dog measured upto 24 hrs by LC/MS analysis; type: ADME, organism-based, Canis lupus familiaris; conditions: in vivo, po
[25] = Oral bioavailability in Beagle dog measured upto 24 hrs by LC/MS analysis; type: ADME, organism-based, Canis lupus familiaris; conditions: in vivo

T1 sequence (P03951 19-387 limits assumed): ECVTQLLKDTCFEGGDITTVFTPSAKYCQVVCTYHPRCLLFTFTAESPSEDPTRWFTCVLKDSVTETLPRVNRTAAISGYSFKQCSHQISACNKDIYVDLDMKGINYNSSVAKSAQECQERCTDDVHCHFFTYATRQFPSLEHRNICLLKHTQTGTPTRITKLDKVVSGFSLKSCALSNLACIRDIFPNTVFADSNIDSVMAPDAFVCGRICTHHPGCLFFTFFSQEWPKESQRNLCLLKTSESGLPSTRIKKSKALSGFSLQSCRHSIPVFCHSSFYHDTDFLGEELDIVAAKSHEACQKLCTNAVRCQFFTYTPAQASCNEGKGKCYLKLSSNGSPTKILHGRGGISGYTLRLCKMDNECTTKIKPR
T1 sequence (P03951 388-625 limits assumed): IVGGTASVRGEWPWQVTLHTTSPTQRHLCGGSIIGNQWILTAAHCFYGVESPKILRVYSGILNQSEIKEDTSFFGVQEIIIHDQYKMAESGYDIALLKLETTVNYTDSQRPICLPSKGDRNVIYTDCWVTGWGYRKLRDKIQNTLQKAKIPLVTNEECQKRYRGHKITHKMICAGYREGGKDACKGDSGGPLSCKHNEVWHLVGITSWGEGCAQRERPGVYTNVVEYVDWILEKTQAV

SMILES: C[C@@H]1CCC[C@H](n2cnc(-c3cc(Cl)ccc3-n3cnnn3)cc2=O)c2cc(c3c(n2)OCCO3)-c2c(cnn2C)NC1=O
- IC50 (Coagulation factor XI [1]): 10.4 nM

SMILES: Nc1ccc(-c2[nH]c(Cn3c4c(c(-c5cc(Cl)ccc5-n5cnnn5)cc3=O)C(=O)CC4)nc2F)c(F)n1
- IC50 (Coagulation factor XI [1]): 0.32 nM

SMILES: O=C(Nc1ccc(C(=O)Nc2ccc(C(=O)Nc3ccc(OS(=O)(=O)O)c4cc(OS(=O)(=O)O)cc(OS(=O)(=O)O)c34)cc2)cc1)Nc1ccc(C(=O)Nc2ccc(C(=O)Nc3ccc(OS(=O)(=O)O)c4cc(OS(=O)(=O)O)cc(OS(=O)(=O)O)c34)cc2)cc1
- IC50 (Cathepsin G): 570 nM
- IC50 (Coagulation factor XI [1]): 4600 nM
- IC50 (Neutrophil elastase): 220 nM

SMILES: CC(C)c1cc(-c2ccc3c(c2)[C@H](N)CO3)cc([C@@H](O)CN2CCc3cccc(C(=O)O)c32)c1
- IC50 (Coagulation factor XI [1]): 0.4 nM
- bioavailability [5]: 100%
- clearance [6]: 11 mL/min/kg
- half-life [7]: 3.73 h
- IC50 (Complement factor D): > 5000 nM
- EC (Plasma [8]): 28.7 µM
- Ratio IC50 [9]: 10000
- IC50 (Plasma kallikrein): 1 nM
- EC (Plasma [10]): 1.3 µM

SMILES: O=C(O)c1ccc(NC(=O)[C@H](Cc2ccccc2)n2cnc(-c3cc(Cl)ccc3-n3cc(Cl)nn3)cc2=O)cc1
- IC50 (Coagulation factor XI [1]): 2.5 nM
- IC50 (Plasma kallikrein): 189 nM

SMILES: CC(C)c1cc(COc2ccccc2CC(=O)O)cc(-c2ccc3c(c2)[C@H](N)CO3)c1
- EC (Plasma [8]): 9.9 µM
- EC (Plasma [10]): 2.2 µM

SMILES: COc1nn([C@@H](Cc2ccccc2)C(=O)Nc2ccc(C(=O)O)cc2)c(=O)cc1-c1cc(Cl)ccc1C(C)=O
- Ki (Coagulation factor XI [23]): 1.6 nM
- Ki (Plasma kallikrein): 103 nM
- half-life [24]: 4.5 h
- bioavailability [25]: 49.6%

SMILES: Nc1ccc(-c2cnc([C@H](CC3CC3)c3ccc(-c4cc(Cl)ccc4-n4cnnn4)c[n+]3[O-])[nH]2)c(Cl)n1
- IC50 (Coagulation factor XI [1]): 0.32 nM
- IC50 (Plasma kallikrein): 80 nM

Continued, in another order:

- IC50 (Coagulation factor XI [1]): 3 nM
SMILES: COc1cn(C(Cc2ccccc2)c2nc3cc(C(=O)O)ccc3[nH]2)c(=O)cc1-c1cc(Cl)ccc1-n1cnnn1 (stereo not given)

- IC50 (Coagulation factor XI [1]): 7.1 nM
- half-life [2]: 1.26 h
- IC50 (Plasma kallikrein): > 14000 nM
- solubility [3]: > 5200 µg/mL
- clearance [4]: 9.2 mL/min/kg
SMILES: O=C(/C=C/c1cc(Cl)ccc1-n1cnnn1)N[C@@H](CC(=O)N1CCN(c2ccccc2)CC1)C(=O)Nc1ccc(C(=O)O)cc1

- IC50 (Coagulation factor XI [1]): 6.4 nM
SMILES: O=C(O)c1cc2cc(NC(=O)[C@@H]3CCc4cc(-c5cc(Cl)ccc5-n5cnnn5)cc(=O)n43)ccc2[nH]1

- bioavailability [11]: 89%
- clearance [13]: 1.9 mL/min/kg
SMILES: O=C(O)c1ccc(NC(=O)[C@H](CC2CC2)c2ccc(-c3c(C(F)F)ccc(Cl)c3F)c[n+]2[O-])cc1 (mixture of isomers)
- EC (Plasma [12]): 0.61 µM

- fraction unbound at 4 h, 1e-05 µM [14]: 0.5
- bioavailability [15]: > 33%
- IC50 (Coagulation factor XI [1]): < 10 nM
- half-life [16]: 2.02 h
SMILES: CC[C@@H](NC(=O)N1C(=O)[C@H](Cc2ccnc(N)c2)[C@H]1C(=O)N(C)c1nccn1C)c1ccccc1

- half-life [17]: > 5 h
- bioavailability [18]: 72.5%
- half-life [16]: > 15 h
- half-life [19]: 1.5 h
SMILES: COCC[C@@H](C(=O)Nc1ccc2nn(C)cc2c1)N1CC(=O)N(c2cc(Cl)ccc2-n2cc(Cl)nn2)CC1=O
- EC (Plasma [10]): 5.3 µM

- IC50 (Coagulation factor XI [1]): 1.8 nM
- CL/F [20]: 19.6 mL/min/kg
- bioavailability [21]: 53.4%
- IC50 (Plasma kallikrein): 13 nM
- half-life [22]: 3.25 h
SMILES: O=c1cc(-c2c(-n3cnnn3)ccc(Cl)c2F)cc2n1[C@H](c1ccc(-c3ccnc(CO)c3F)[nH]1)CC2

- Ki (Coagulation factor XI [1]): 2 nM
SMILES: Nc1ccc(-c2nc([C@H]3CCc4cc(-c5cc(Cl)ccc5-n5cnnn5)cc(=O)n43)c(F)[nH]2)c(F)n1 [ONO-7684]

- IC50 (Coagulation factor XI [1]): < 10 nM
SMILES: CC[C@@H](NC(=O)N1C(=O)[C@H](Cc2ccnc(N)c2)[C@H]1C(=O)O)c1ccccc1

— ChEMBL document CHEMBL5338745, “Factor XIa Inhibitors in Anticoagulation Therapy: Recent Advances and Perspectives” (J Med Chem, 2023)
